Assay results reported in patent publication US8580784B2, “Method for treating a disease related to the glucocorticoid receptor” (Santen Pharmaceutical Co., Ltd., priority 2006, dated 2013).

Molecular target: T1, Recombinant human GR (Homo sapiens, UniProt P04150)
T1 construct: purchased Invitrogen P2816
T1 sequence (P04150 1-777): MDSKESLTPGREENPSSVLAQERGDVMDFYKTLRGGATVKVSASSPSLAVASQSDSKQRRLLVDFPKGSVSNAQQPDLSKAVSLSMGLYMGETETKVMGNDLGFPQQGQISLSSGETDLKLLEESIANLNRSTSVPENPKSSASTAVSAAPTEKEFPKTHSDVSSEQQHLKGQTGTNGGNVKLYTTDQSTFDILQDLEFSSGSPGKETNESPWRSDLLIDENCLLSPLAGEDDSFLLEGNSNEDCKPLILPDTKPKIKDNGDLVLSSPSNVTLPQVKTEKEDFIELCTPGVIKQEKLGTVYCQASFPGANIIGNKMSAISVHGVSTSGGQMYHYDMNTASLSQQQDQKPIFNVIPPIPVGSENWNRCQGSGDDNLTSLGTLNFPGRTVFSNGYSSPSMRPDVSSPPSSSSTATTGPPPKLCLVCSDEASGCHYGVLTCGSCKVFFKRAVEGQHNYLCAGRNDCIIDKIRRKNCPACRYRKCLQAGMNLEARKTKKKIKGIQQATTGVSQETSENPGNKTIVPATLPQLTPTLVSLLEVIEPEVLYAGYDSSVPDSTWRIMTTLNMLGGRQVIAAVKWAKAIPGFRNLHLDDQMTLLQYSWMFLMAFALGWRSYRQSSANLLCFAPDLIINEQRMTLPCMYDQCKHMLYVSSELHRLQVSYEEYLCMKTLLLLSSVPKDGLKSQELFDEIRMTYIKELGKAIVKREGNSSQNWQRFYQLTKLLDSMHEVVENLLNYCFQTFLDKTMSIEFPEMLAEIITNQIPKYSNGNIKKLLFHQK
Assay: Evaluation test for binding activity to glucocorticoid receptor: receptor competitor assay by fluorescence polarization (Invitrogen GR competitor assay kit, cat No. P2816)
Conditions: 20 μM test compound solution, 10 μL per well plus 5 μL 4×GS1 and 5 μL 4×GR solution; room temperature 2 to 4 hours; a ratio of 100% or more is indicated by 100%
Description: A detailed explanation of this matter will be described in the section of “Pharmacological Test” in Examples described below. In order to find the usefulness of the present compound as a pharmaceutical, a glucocorticoid receptor competitor assay was carried out by a fluorescence polarization method by using a glucocorticoid receptor competitor assay kit (manufactured by Invitrogen, cat No. P2816) to study the glucocorticoid receptor binding activity of the present compound.
1. Evaluation Test for Binding Activity to Glucocorticoid Receptor (hereinafter referred to as “GR”)
In order to evaluate a binding activity to GR, a receptor competitor assay was carried out by a fluorescence polarization method. In the assay, a GR competitor assay kit (manufactured by Invitrogen, cat No. P2816) was used, and a procedure was carried out according to the protocol attached to the kit. Hereinafter, the specific method will be described.
(Preparation of Reagents)
GR screening buffer: A buffer containing 10 mM potassium phosphate (pH 7.4), 20 mM sodium molybdate (Na2MoO4), 0.1 mM ethylene diamine tetraacetic acid (EDTA), 5 mM dithiothreitol (DTT), 0.1 mM stabilizing peptide and 2% dimethylsulfoxide was prepared.
4×GS1 solution: Fluormone™ GS1, which is a fluorescent glucocorticoid ligand, was diluted with GR screening buffer, whereby a 4 nM solution was prepared.
4×GR solution: Recombinant human GR was diluted with GR screening buffer, whereby a 16 nM solution was prepared.
(Preparation of Test Compound Solution)
After a test compound was dissolved in dimethylsulfoxide, the resulting solution was diluted with GR screening buffer, whereby a 20 μM test compound solution was prepared.
(Test Method and Measurement Method)
1) The test compound solution was added in an amount of 10 μL into each well of a 384-well plate, and then, 4×GS1 solution and 4×GR solution were added in an amount of 5 μL into each well, respectively.
2) The plate was incubated in a dark place at room temperature for 2 to 4 hours.
3) By using a multimode plate reader, Analyst™ HT (manufactured by LJL Biosystems), fluorescence polarization of each well was measured. As the blank, a well containing GR screening buffer in place of the test compound and 4×GS1 solution was used.
4) The same procedure as that in the above 1) to 3) was carried out except that GR screening buffer was used in place of the test compound solution, and the obtained result was taken as the negative control.
5) The same procedure as that in the above 1) to 3) was carried out except that 2 mM dexamethasone was used in place of the test compound solution, and the obtained result was taken as the positive control.
(Calculation Equation of GR Binding Ratio)
A GR binding ratio (%) was calculated from the following equation. GR binding ratio(%)=100×[1−(fluorescence polarization of test compound solution−fluorescence polarization of positive control solution)/(fluorescence polarization of negative control solution−fluorescence polarization of positive control solution)] (Test Results and Discussion)

inhibition at 20 µM (stock)	inhibition at 20 µM	Compound
92%	–	COc1ccccc1NCc1c(-c2ccc(OC(=O)c3ccco3)cc2OC)ccc2c1C(C)=CC(C)(C)N2 [Compound 1-1, 6-[4-(Furan-2-ylcarbonyloxy)-2-methoxyphenyl]-5-(2-methoxyphenylaminomethyl)-2,2,4-trimethyl-1,2-dihydroquioline]
100%	–	COc1ccccc1NCc1c(-c2ccc(OC(=O)c3cccnc3C)cc2OC)ccc2c1C(C)=CC(C)(C)N2 [Compound 1-2, 6-[2-Methoxy-4-(2-methylpyridin-3-ylcarbonyloxy)phenyl]-5-(2-methoxyphenylaminomethyl)-2,2,4-trimethyl-1,2-dihydroquioline]
95%	–	COc1ccccc1NCc1c(-c2ccc(OC(=O)c3ccccc3)cc2OC)ccc2c1C(C)=CC(C)(C)N2 [Compound 1-3, 6-(4-Benzoyloxy-2-methoxyphenyl)-5-(2-methoxyphenylaminomethyl)-2,2,4-trimethyl-1,2-dihydroquioline]
95%	–	COc1ccccc1NCc1c(-c2ccc(OC(=O)c3ccccc3OC)cc2OC)ccc2c1C(C)=CC(C)(C)N2 [Compound 1-4, 6-[2-Methoxy-4-(2-methoxybenzoyloxy)phenyl]-5-(2-methoxyphenylaminomethyl)-2,2,4-trimethyl-1,2-dihydroquinoline]
93%	–	COc1ccccc1NCc1c(-c2ccc(OC(=O)c3ccccc3C)cc2OC)ccc2c1C(C)=CC(C)(C)N2 [Compound 1-5, 6-[2-Methoxy-4-(2-methylbenzoyloxy)phenyl]-5-(2-methoxyphenylaminomethyl)-2,2,4-trimethyl-1,2-dihydroquinoline]
97%	–	COc1ccccc1NCc1c(-c2ccc(OC(=O)c3ccoc3)cc2OC)ccc2c1C(C)=CC(C)(C)N2 [Compound 1-6, 6-[4-(Furan-3-ylcarbonyloxy)-2-methoxyphenyl]-5-(2-methoxyphenylaminomethyl)-2,2,4-trimethyl-1,2-dihydroquinoline]
95%	–	COc1ccccc1NCc1c(-c2ccc(OC(=O)c3ccsc3)cc2OC)ccc2c1C(C)=CC(C)(C)N2 [Compound 1-7, 5-(2-Methoxyphenylaminomethyl)-6-[2-methoxy-4-(thiophen-3-ylcarbonyloxy)phenyl]-2,2,4-trimethyl-1,2-dihydroquinoline]
–	98%	COc1ccccc1NCc1c(-c2ccc(OC(=O)c3cccnc3)cc2OC)ccc2c1C(C)=CC(C)(C)N2 [Compound 1-8, 5-(2-Methoxyphenylaminomethyl)-6-[2-methoxy-4-(pyridin-3-ylcarbonyloxy)phenyl]-2,2,4-trimethyl-1,2-dihydroquinoline]
90%	–	COc1cc(OC(=O)c2ccccc2Cl)ccc1-c1ccc2c(c1CNc1cc(F)ccc1C)C(C)=CC(C)(C)N2 [Compound 1-9, 6-[4-(2-Chlorobenzoyloxy)-2-methoxyphenyl]-5-(5-fluoro-2-methylphenylaminomethyl)-2,2,4-trimethyl-1,2-dihydroquinoline]
93%	–	COc1ccccc1NCc1c(-c2ccc(OC(=O)c3ccccc3Cl)cc2OC)ccc2c1C(C)=CC(C)(C)N2 [Compound 1-10, 6-[4-(2-Chlorobenzoyloxy)-2-methoxyphenyl]-5-(2-methoxyphenylaminomethyl)-2,2,4-trimethyl-1,2-dihydroquinoline]
99%	–	COc1ccccc1NCc1c(-c2ccc(OC(=O)c3ccccc3F)cc2OC)ccc2c1C(C)=CC(C)(C)N2 [Compound 1-12, 6-[4-(2-Fluorobenzoyloxy)-2-methoxyphenyl]-5-(2-methoxyphenylaminomethyl)-2,2,4-trimethyl-1,2-dihydroquinoline]
100%	–	COc1ccccc1NCc1c(-c2ccc(OC(=O)c3ccncc3)cc2OC)ccc2c1C(C)=CC(C)(C)N2 [Compound 1-13, 5-(2-Methoxyphenylaminomethyl)-6-[2-methoxy-4-(pyridin-4-ylcarbonyloxy)phenyl]-2,2,4-trimethyl-1,2-dihydroquinoline]
